The supplement of paper PMC11061612

How the values were obtained:
BE2-M17 (Neuroblastoma) = assay: Bliss excess, mean over the matrix (fraction); higher = more synergy
In short: (§1)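 Cell lines grown in DMEM/F12 or RPMI with 10% FBS were plated in 1536-well plates and held 24 hours at 37°C, 5% CO2 before 72 hours of exposure to two-drug dose matrices, with DMSO typically at 0.2%. CellTiter-Glo 2.0 luminescence gave viability, which was converted to inhibition. Vehicle wells were set to 0 and blank wells to 1. Combination Emax is the second-highest inhibition in the matrix, and Bliss excess is the observed combination effect minus the expected EA + EB − EA·EB, where EA and EB are the single-agent effects.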

CAL-72 (Osteosarcoma) = assay: as above
In short: as §1

NCI-H2052 (Mesothelioma) = assay: as above
In short: as §1

[1] = tested on: HeLa (Cervical Carcinoma); assay: as above
In short: as §1

[2] = tested on: NUGC-4 (Gastric Carcinoma); assay: as above
In short: as §1

[3] = tested on: MHH-CALL-2 (B-Lymphoblastic Leukemia); assay: as above
In short: as §1

[4] = tested on: SAS (Oral Cavity Carcinoma); assay: as above
In short: as §1

EW-11 (Ewing's Sarcoma) = assay: as above
In short: as §1

[5] = tested on: LS-123 (Colorectal Carcinoma); assay: as above
In short: as §1

[6] = tested on: LNZTA3WT4 (Low Grade Glioma); assay: as above
In short: as §1

[7] = tested on: KMRC-20 (Kidney Carcinoma); assay: as above
In short: as §1

[8] = tested on: TGBC1TKB (Biliary Tract Carcinoma); assay: as above
In short: as §1

[9] = tested on: SNU-16 (Gastric Carcinoma); assay: as above
In short: as §1

[10] = tested on: Detroit562 (Head and Neck Carcinoma); assay: as above
In short: as §1

GAMG (Glioblastoma) = assay: as above
In short: as §1

[11] = tested on: OVCAR-5 (Ovarian Carcinoma); assay: combination Emax (second highest fraction inhibited in the dose matrix, 72 h); higher = more inhibition; extreme values may be limits of the assay
In short: as §1

A673 (Ewing's Sarcoma) = assay: as above
In short: as §1

[12] = tested on: MHH-CALL-2 (B-Lymphoblastic Leukemia); assay: as above
In short: as §1

[13] = tested on: SAS (Oral Cavity Carcinoma); assay: as above
In short: as §1

[14] = tested on: Hs-746T (Gastric Carcinoma); assay: as above
In short: as §1
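For Bliss excess, mean over the matrix in this document: after 72 h of two-drug dosing.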

SMILES	Bliss excess (BE2-M17 (Neuroblastoma))	Bliss excess (CAL-72 (Osteosarcoma))	Bliss excess (NCI-H2052 (Mesothelioma))	Bliss excess [1]	Bliss excess [2]	Bliss excess [3]	Bliss excess [4]	Bliss excess (EW-11 (Ewing's Sarcoma))	Bliss excess [5]	Bliss excess [6]	Bliss excess [7]	Bliss excess [8]	Bliss excess [9]	Bliss excess [10]	Bliss excess (GAMG (Glioblastoma))	combination Emax [11]	combination Emax (A673 (Ewing's Sarcoma))	combination Emax [12]	combination Emax [13]	combination Emax [14]
Cc1c2c(nn1C)CSCc1cc(n(C)n1)CSc1cc(c3ccccc3c1)OCCCc1c(C(=O)O)n(C)c3c-2c(Cl)ccc13 [AZD5991] + Cn1cnc2c(F)c(Nc3ccc(Br)cc3Cl)c(C(=O)NOCCO)cc21 [Selumetinib] (first compound max 1 µM, 7x7, partner max 3 µM)	0.0436	0.0483	0.0301	-0.004	0.0356	0.111	0.0248	-0.0106	0.0196	0.0046	0.0054	-0.0181	0.0143	0.0295	0.0368	0.543	0.671	1	0.44	0.422
CC1(C)CCC(CN2CCN(c3ccc(C(=O)NS(=O)(=O)c4ccc(NCC5CCOCC5)c([N+](=O)[O-])c4)c(Oc4cnc5[nH]ccc5c4)c3)CC2)=C(c2ccc(Cl)cc2)C1 [Venetoclax] + COc1cc(Nc2ncc3c(n2)-c2ccc(Cl)cc2C(c2c(F)cccc2OC)=NC3)ccc1C(=O)O [Alisertib] (first compound max 1 µM, 7x7, partner max 10 µM)	0.215	-0.049	-0.0169	0.0517	-0.0557	0.165	-0.0842	0.0369	0.0288	0.023	0.0226	-0.0367	-0.052	-0.043	-0.0024	0.335	0.835	0.733	0.39	0.65
Cn1cnc2c(F)c(Nc3ccc(Br)cc3Cl)c(C(=O)NOCCO)cc21 [Selumetinib] + CC(C)n1c(=O)n(C)c2cnc3cc(F)c(-c4ccc(OCCCN5CCCCC5)nc4)cc3c21 [AZD1390] (first compound max 10 µM, 7x7, partner max 0.3 µM)	-0.0293	-0.0484	-0.0242	-0.0437	-0.0045	0.0042	-0.0146	-0.0399	0.0194	-0.0324	-0.0458	-0.0157	-0.0185	0.003	-0.0242	0.563	0.185	0.256	0.408	0.411
CS(=O)(=O)CCNCc1ccc(-c2ccc3ncnc(Nc4ccc(OCc5cccc(F)c5)c(Cl)c4)c3c2)o1 [Lapatinib] + C[C@@H](Oc1cc(-c2cnn(C3CCNCC3)c2)cnc1N)c1c(Cl)ccc(F)c1Cl [Crizotinib] (first compound max 10 µM, 7x7, partner max 10 µM)	-0.0652	-0.0926	-0.0676	-0.0031	0.0496	0.0219	-0.0346	-0.0233	-0.0052	-0.0665	-0.116	-0.0061	-0.0151	0.0107	-0.0277	0.834	0.808	1	0.825	0.876
CC1(C)CCC(CN2CCN(c3ccc(C(=O)NS(=O)(=O)c4ccc(NCC5CCOCC5)c([N+](=O)[O-])c4)c(Oc4cnc5[nH]ccc5c4)c3)CC2)=C(c2ccc(Cl)cc2)C1 [Venetoclax] + Cc1cc2ncnn2cc1Nc1ncc2c(n1)n(C1CCOCC1)c(=O)n2C [AZD7648] (first compound max 1 µM, 7x7, partner max 10 µM)	0.0002	-0.0713	-0.0019	-0.0354	-0.0714	-0.0228	-0.0055	0.0082	-0.0543	-0.0353	0.0019	-0.043	-0.0396	-0.0205	-0.024	0.339	0.597	0.17	0.256	0.226
CC(=O)c1c(C)c2cnc(Nc3ccc(N4CCNCC4)cn3)nc2n(C2CCCC2)c1=O [Palbociclib] + Cn1cnc2c(F)c(Nc3ccc(Br)cc3Cl)c(C(=O)NOCCO)cc21 [Selumetinib] (first compound max 10 µM, 7x7, partner max 10 µM)	-0.0339	0.0683	-0.0124	-0.0499	-0.0292	-0.0407	-0.0084	-0.0298	0.002	-0.0459	-0.0534	-0.0251	0.0339	-0.0041	-0.0072	0.587	0.177	0.31	0.711	0.49
COc1nnc2ccc(N3CCC(c4ccc(OCCN5CCN(C)C(=O)[C@H]5C)cc4)CC3)nn12 [AZD5153] + CC1(C)CCC(CN2CCN(c3ccc(C(=O)NS(=O)(=O)c4ccc(NCC5CCOCC5)c([N+](=O)[O-])c4)c(Oc4cnc5[nH]ccc5c4)c3)CC2)=C(c2ccc(Cl)cc2)C1 [Venetoclax] (first compound max 1 µM, 7x7, partner max 1 µM)	0.0308	-0.0305	-0.0748	-0.0574	-0.0455	-0.0292	-0.0325	-0.117	0.0205	-0.0571	-0.0096	0.0071	-0.0522	-0.0552	-0.01	0.514	0.505	0.429	0.754	0.512
Cc1c2c(nn1C)CSCc1cc(n(C)n1)CSc1cc(c3ccccc3c1)OCCCc1c(C(=O)O)n(C)c3c-2c(Cl)ccc13 [AZD5991] + C[C@@H](Nc1cc(F)cc(F)c1)c1cc(C(=O)N(C)C)cc2c(=O)cc(N3CCOCC3)oc12 [AZD8186] (first compound max 1 µM, 7x7, partner max 3 µM)	-0.0355	-0.0149	0.0011	0.0387	-0.0056	-0.0188	0.0062	-0.0009	-0.0006	0.0055	0.0456	-0.0236	0.0087	0.0065	-0.0458	0.267	0.557	0.989	0.321	0.487
Cc1c2c(nn1C)CSCc1cc(n(C)n1)CSc1cc(c3ccccc3c1)OCCCc1c(C(=O)O)n(C)c3c-2c(Cl)ccc13 [AZD5991] + CC1(C)CCC(CN2CCN(c3ccc(C(=O)NS(=O)(=O)c4ccc(NCC5CCOCC5)c([N+](=O)[O-])c4)c(Oc4cnc5[nH]ccc5c4)c3)CC2)=C(c2ccc(Cl)cc2)C1 [Venetoclax] (first compound max 1 µM, 7x7, partner max 1 µM)	0.0276	0.0676	0.0269	0.0343	-0.0621	0.0043	0.0098	0.144	-0.026	0.0364	-0.0206	-0.0252	0.0558	-0.0119	-0.0047	0.159	0.868	0.983	0.184	0.203
CC(=O)c1c(C)c2cnc(Nc3ccc(N4CCNCC4)cn3)nc2n(C2CCCC2)c1=O [Palbociclib] + CC1(C)CCC(CN2CCN(c3ccc(C(=O)NS(=O)(=O)c4ccc(NCC5CCOCC5)c([N+](=O)[O-])c4)c(Oc4cnc5[nH]ccc5c4)c3)CC2)=C(c2ccc(Cl)cc2)C1 [Venetoclax] (first compound max 10 µM, 7x7, partner max 1 µM)	0.0218	-0.0439	-0.0432	-0.0473	-0.0246	-0.032	0.014	-0.0083	-0.0324	-0.0032	-0.03	-0.0385	-0.0161	0.0008	-0.0097	0.346	0.136	0.155	0.47	0.24
